# Measurements as given in publication PMC4365270 (Cancer Chemotherapy and Pharmacology, 2015).
# Tests used:
# [1] = design: method as in PMID 23813446; details: non-human primates; cited from earlier work
# [2] = tested on: advanced solid tumors and lymphomas; assay: Antitumor activity (RECIST 1.1 / lymphoma criteria); type: in vivo, human
# Experimental: Tumor evaluations were scheduled before therapy and after every other cycle of therapy. Changes were determined by physical examination, tumor markers, or standard imaging techniques. […] Read-outs were complete response (CR), partial response (PR), stable disease (SD), and disease progression (DP).
# [3] = tested on: tumor necrosis factor α (TNFα); assay: Plasma TNFα ELISA; design: species or system human; details: in vivo
# Experimental: cIAP-1 levels were measured in tumor tissue and surrogate tissue as available. Peripheral blood mononuclear cells (PBMCs) were analyzed for DEBIO1143-induced cIAP-1 degradation. Plasma native cytokeratin-18 ([…]) or caspase-3 generated cytokeratin-18 fragments (M30), interleukin 8 (IL8), chemokine ligand 2 (CCL2, MCP1), and tumor necrosis factor α (TNFα) were measured by ELISA as markers of epithelial cell death and inflammation on days 1 (predose, 1, 3, 6, and 12 h postdose), 2, and 5. […] For the detection of cIAP-1 in paraffin-embedded human tissue, a validated immunohistochemical (IHC) assay was used. DEBIO1143-induced cIAP-1 degradation was measured in PBMCs using Western blot. Plasma biomarkers were measured through commercial ELISAs. All laboratory analyses were performed by MPI Research, Inc. (PK) and Mosaic Laboratory, LLC (PD).
# [4] = tested on: xenograft tumors; details: cited from earlier work
structure (smiles),measurement,setting,value
CN[C@@H](C)C(=O)N[C@H]1CN(C(=O)CC(C)C)CC[C@H]2CC[C@@H](C(=O)NC(c3ccccc3)c3ccccc3)N2C1=O [DEBIO1143],Oral bioavailability,[1],good
same,Complete or partial response,[2]; 31 patients,No patient had a complete or partial response
same,"Duration of stable disease, range",[2]; five patients,85 to 197 days
same,Median duration of stable disease,[2]; five patients,93 days
same,Reduction in target lesion dimensions,"[2]; one patient with metastatic melanoma, 400 mg/day",11%
same,Patients with detectable TNFα showing some increase postdose,[3],four out of five
same,Apoptosis,[4],apoptosis in xenograft tumors
